The text below walks through data of patent publication US10406227B2, “Photoactivated molecules for light-induced modulation of the activity of electrically excitable cells and methods of using same” (University of Southern California, priority 2012, dated 2019).

The subject of one series is INS and HEK293T cells. Nature of the series: Time course of light-induced membrane potential change in single cells (patch clamp). The format is cell-based. As for the experimental part: Membrane potential was monitored using whole cell patch clamp in current-clamp mode. Cultured cells (INS and HEK293) were plated on a glass-bottomed culture dishes 1-3 days prior to recording. Cells were incubated in standard extracellular solution with or without 10 μM RubpyC17 compound for approximately 1.5-2 minutes, then washed and incubated with standard extracellular solution without additional supplementation, or with 2-5 mM ascorbate, 100 μM sodium ferrocyanide, or 100-200 μM potassium ferricyanide, as indicated. The chamber was transferred to the microscope stage. Extracellular solution consisted of 140 mM NaCl, 2.8 mM KCl, 10 mM HEPES, 1 mM MgCl2, 2 mM CaCl2, 10 mM glucose, pH adjusted to 7.3, and osmolarity adjusted to 300-310. Conventional whole-cell patch clamp recordings were performed with an EPC-9 amplifier and Pulse software (HEKA Electronics). Pipette electrodes of 1.8-3.5 Mohm were fire polished before use. Intracellular solution consisted of: 145 mM KCl, 10 mM NaCl, 1 mM MgCl2, 1 mM EGTA, 2 mM ATP, 0.3 mM GTP and 10 mM HEPES, pH adjusted to 7.3 and osmolarity adjusted to 290-300 mOsm. To monitor changes in membrane voltage/potential, cells were patch clamped in current-clamp mode. Access resistances were in the range of 3-8 Mohm. Using Pulse, membrane potentials were recorded before, during and after illumination by the argon ion laser at 488 nm with an irradiance value of 0.458 mE s^−1 m^−2 or by a xenon lamp source through a 470/40 nm bandpass excitation filter with an irradiance value of 0.480 mE s^−1 m^−2. The duration of illumination varied and the timing is indicated by bars on the figures.
It was discovered that luminescent cells undergo depolarization when illuminated for 25 seconds or longer when reductants (e.g., ascorbate) are present or for 10 seconds or longer when oxidants (e.g., ferricyanide) are present (FIG. 2A). Other oxidants or reductants are used in several embodiments, such as those that are, normally present (or biologically compatible) in the environment of a certain target tissue. In several embodiments, it is possible that light-induced depolarization or hyperpolarization amplitude or rate is controlled by varying illumination time or intensity.
To reach a maximum effect, the light-triggered depolarization in RubpyC17-treated cells requires on the order of 30 seconds of continuous illumination at 0.46-0.48 mE s−1 m2 (FIGS. 2B-F) The time course observed is dependent on several factors, and may be greater or lesser during in vivo applications. One, it is related to the probability of photon absorption per unit time by membrane-associated RubpyC17, which depends on the concentration of RubpyC17, the partitioning into the membrane, and the photon flux. […]
For orientation: In patch-clamp work, channel activity is measured electrically.

In the next series the test system is HEK293T cells. Nature of the series: Imaging RubpyC17 in live cells (membrane luminescence). The format is cell-based, human. As for the experimental part:
Cells were imaged at 1-3 days after plating. The glass-bottomed chambers with adherent cells were washed twice with PBS and then filled with standard extracellular solution consisting of 140 mM NaCl, 2.8 mM KCl, 10 mM HEPES, 1 mM MgCl2, 2 mM CaCl2, and 10 mM glucose, pH adjusted to 7.2-7.4 and osmolarity adjusted to 290-310 mOsm. The chamber was then mounted on an Olympus IX70 inverted microscope stage for imaging, using a Cascade 512B EMCCD camera, operated by Metamorph software. Initial imaging was done with cells in extracellular solution without RubpyC17, first under brightfield to evaluate cell health and morphology, then under widefield argon ion laser illumination at 488 nm (Coherent, Innova 90-5, Santa Clara, Calif.), to evaluate autofluorescence. Next, the extracellular solution was removed and replaced with extracellular solution containing the RubpyC17 compound (10 μM in ≤0.01% DMSO, final concentrations). Cell images were then acquired with illumination at 488 nm (collected with a long-pass red emission filter). For electrophysiological experiments, RubpyC17 compound was added to the extracellular solution (2-10 μM in ≤0.01% DMSO, final concentrations as indicated) and cells were incubated for 1.5-45 min, as indicated, then washed with extracellular solution without RubpyC17. Some chromaffin cells were also exposed continuously to 490-900 nM RubpyC17-containing extracellular solution.
Illustrated here are rat insulinoma INS cells (FIG. 1C, top), human embryonic kidney (HEK293T) cells (FIG. 1C, middle), and primary cultured mouse chromaffin cells (FIG. 1C, bottom). […] All cell types preserved morphology for at least 10 minutes. […] One embodiment of the possible light-induced electron transfer is depicted in FIG. 1D.

On to [Ru(bpy)2(bpy-C17)](PF6)2 [RubpyC17], for which, in the series on INS and HEK293T cells (0.46-0.48 mE s−1 m2), the “continuous illumination to reach maximum depolarization” value was about 30 s. For the same substance, the “illumination duration giving membrane potential change” value in the series on INS and HEK293T cells (oxidants (e.g., ferricyanide) present) was at least 10 s; with INS and HEK293T cells (reductants (e.g., ascorbate) present), at least 25 s. Further, in the series with INS and HEK293T cells (presence of reductants), the “reversibility of light-induced depolarization” value is reported as “appears to be irreversible”. In addition, the “time cell morphology preserved” value with HEK293T cells (10 μM RubpyC17) was “at least 10 minutes”. The “incorporation into plasma membrane (membrane-localized luminescence)” value in the series with HEK293T cells (10 μM in bath, 488 nm excitation) was “rapidly and stably incorporates into mammalian cell membranes”. Also, the “membrane luminescence after removal from bath solution” value in the series on HEK293T cells (10 minutes after RubpyC17 removal) is “still observed”.
